Like-named read-outs stand apart in the source and are kept apart here.
Molecular target: SARS-CoV-2 3CL protease (Severe acute respiratory syndrome coronavirus 2, UniProt P0DTD1)
Assay type: biochemical
Design: Avg: unit not given here
Conditions: for Inhibition at 10 µM: 10 µM compound; for Inhibition at 100 µM: 100 µM compound; for IC50 / LogIC50: Figure S1 and S2
[1] = log of IC50 (µM), dose-response curve fit
[2] = Conc 10 µM, average response of dose-response curve
[3] = Conc 15 µM, average response of dose-response curve
[4] = Conc 20 µM, average response of dose-response curve
[5] = Conc 50 µM, average response of dose-response curve
[6] = Conc 100 µM, average response of dose-response curve
[7] = Conc 200 µM, average response of dose-response curve
[8] = dose-response retest of fragment hits
[9] = Conc 10 µM, mean response (inhibition) of dose-response curve
[10] = Conc 15 µM, mean response (inhibition) of dose-response curve
[11] = Conc 20 µM, mean response (inhibition) of dose-response curve
[12] = Conc 50 µM, mean response (inhibition) of dose-response curve
[13] = Conc 100 µM, mean response (inhibition) of dose-response curve
[14] = Conc 200 µM, mean response (inhibition) of dose-response curve
[15] = dose-response curve of fragment hit

Structure (SMILES) | Inhibition at 10 µM [%] | Inhibition at 100 µM [%] | Avg (Conc 10 µM) | Avg (Conc 15 µM) | Avg (Conc 20 µM) | Avg (Conc 50 µM) | Avg (Conc 100 µM) | Avg (Conc 200 µM) | IC50 (dose-response curve fit) [µM] | LogIC50 [1] | Avg [9] | Avg [10] | Avg [11] | Avg [12] | Avg [13] | Avg [14] | IC50 [15] [µM] | LogIC50 (log10 of IC50 in µM) | other results
O=C(NCc1ncccc1F)c1cccnc1S [Z1499268500] | 17 | 100 | 17.2 | 49.3 | 94.7 | 100.1 | 91.4 | 94.2 | 15 | 1.1775 |  |  |  |  |  |  |  |  | 
Nc1cccnc1S [Z1741977862] | 21 | 100 |  |  |  |  |  |  |  |  |  |  |  |  |  |  |  |  | Avg [2]: 21.4; Avg [3]: 52.3; Avg [4]: 66.1; Avg [5]: 102.9; Avg [6]: 106.8; Avg [7]: 99.2; IC50 [8]: 15.2 µM; LogIC50 (log of IC50 in µM): 1.183
C=CS(=O)(=O)c1nc2ccccc2s1 [Z3228044564] | 73 | 100 |  |  |  |  |  |  |  |  | 73.2 | 84.2 | 91.1 | 103.1 | 104 | 112.9 |  |  | 
O=C(NCC(CO)c1ccccc1)c1cccnc1S (stereo not shown) [Z1346056045] | 2 | 96 | 2.4 | 13.5 | 19.9 | 74.2 | 95.6 | 87.7 | 32.4 | 1.51 |  |  |  |  |  |  |  |  | 
COC(C)(C)CNC(=O)c1cccnc1S [Z1274680193] | 27 | 80 | 27.3 | 54.6 | 67.5 | 90.4 | 80.1 | 60.9 | 14.2 | 1.153 |  |  |  |  |  |  |  |  | 
Cc1cnc(=S)[nH]c1 [Z2768165643] | 41 | 100 |  |  |  |  |  |  |  |  | 41.2 | 59.8 | 69.1 | 106.7 | 109.4 | 108.2 | 13 | 1.114 | 
N#C/C=C/S(=O)(=O)c1ccc(Cl)cc1 [Z1649581806] | 18 | 95 |  |  |  |  |  |  |  |  |  |  |  |  |  |  |  |  | Avg [2]: 17.8; Avg [3]: 30.7; Avg [4]: 66.2; Avg [5]: 85.5; Avg [6]: 95.1; Avg [7]: 100.5; IC50 [8]: 17.8 µM; LogIC50 (log of IC50 in µM): 1.251
O=C(NCC1(O)CCc2ccccc21)c1cccnc1S (stereo not shown) [Z1501256406] | 55 | 82 | 55.2 | 87.1 | 101.3 | 96.8 | 82.6 | 65.5 |  |  |  |  |  |  |  |  |  |  | 
CC1(C)C(=O)Nc2ccc(C(=O)CCl)cc21 [Z2160878465] | 7 | 97 |  |  |  |  |  |  |  |  |  |  |  |  |  |  |  |  | Avg [2]: 6.9; Avg [3]: 29.9; Avg [4]: 41.3; Avg [5]: 60; Avg [6]: 96.5; Avg [7]: 106.7; IC50 [8]: 28.6 µM; LogIC50 (log of IC50 in µM): 1.456
N#Cc1ccnc(S)c1 [Z2687203952] | 12 | 100 |  |  |  |  |  |  |  |  | 11.5 | 33.9 | 67.8 | 111.2 | 107.8 | 106.7 | 17.4 | 1.241 | 
O=C(CCl)NC(=O)OCc1ccccc1 [Z108566700] | 22 | 100 | 22.2 | 41.7 | 51.1 | 86.4 | 100.3 | 108.1 | 19 | 1.279 |  |  |  |  |  |  |  |  | 
CN1Cc2cc(C(=O)CCl)ccc2NC1=O [Z2491497315] | 16 | 95 |  |  |  |  |  |  |  |  |  |  |  |  |  |  | 24.2 | 1.383 | Avg [2]: 15.7; Avg [3]: 35.9; Avg [4]: 38.8; Avg [5]: 78.6; Avg [6]: 95.1; Avg [7]: 102.1; IC50 [8]: 24.2 µM; LogIC50 (log of IC50 in µM): 1.383
CCNC(=O)N1CCC(NC(=O)c2cccnc2S)C1 (stereo not shown) [Z1421663935] | 4 | 100 | 3.7 | 20 | 18.3 | 97.3 | 103.3 | 100 | 28 | 1.447 |  |  |  |  |  |  |  |  | 
O=C(CCl)c1csc(N2CCCCC2)n1 [Z2469673977] | 51 | 100 |  |  |  |  |  |  |  |  |  |  |  |  |  |  |  |  | Avg [2]: 51.4; Avg [3]: 56.3; Avg [4]: 64; Avg [5]: 57.3; Avg [6]: 102; Avg [7]: 104.1
CC(C)OC1CCC(NC(=O)c2cccnc2S)CC1 (stereo not shown) [Z1500153099] | 2 | 96 | 2.2 | 13 | 32.4 | 52.9 | 96.3 | 103 | 37.9 | 1.579 |  |  |  |  |  |  |  |  | 
O=C(NCCC(O)c1ccccc1)c1cccnc1S (stereo not shown) [Z1275438373] | 13 | 100 | 12.5 | 9.1 | 42.4 | 99.1 | 101.3 | 95.1 | 20.2 | 1.3058 |  |  |  |  |  |  |  |  | 
CSc1cc(C(=O)CCl)ccc1NC(C)=O [Z449369022] |  | 95 |  |  |  |  |  |  |  |  | 12.5 | 32 | 31 | 67.6 | 95.3 | 107.3 | 31 | 1.491 | 
Cc1cnccc1CCNC(=O)c1cccnc1S [Z1515958452] | 4 | 100 |  |  |  |  |  |  |  |  |  |  |  |  |  |  |  |  | Avg [2]: 4; Avg [3]: -6.1; Avg [4]: 25.7; Avg [5]: 93.3; Avg [6]: 101.4; Avg [7]: 97.8; IC50 [8]: 20.6 µM; LogIC50 (log of IC50 in µM): 1.315
Cc1cc(C(=O)CCl)c(C)n1-c1ncn[nH]1 [Z57014347] | 35 | 100 |  |  |  |  |  |  |  |  | 35.1 | 51.1 | 60.8 | 75.5 | 101.2 | 107.2 | 15.4 | 1.188 | 
Cc1cc(C(=O)CCl)c(C)n1-c1ccccn1 [Z126674012] | 36 | 91 | 35.8 | 45.3 | 61.2 | 80.4 | 91.2 | 99.9 | 15.8 | 1.197 |  |  |  |  |  |  |  |  | 
O=C(c1ccc(S)nc1)N1CCCC1 [Z235362941] | 0 | 100 |  |  |  |  |  |  |  |  |  |  |  |  |  |  |  |  | Avg [2]: 0.4; Avg [3]: 23.9; Avg [4]: 31.4; Avg [5]: 102.7; Avg [6]: 108.6; Avg [7]: 116.6; IC50 [8]: 23.9 µM; LogIC50 (log of IC50 in µM): 1.378
NC(=O)CCc1ccc(C(=O)CCl)cc1 [Z1203664423] | 22 | 88 | 21.6 | 41.7 | 49.5 | 69.9 | 88.3 | 103.3 | 22 | 1.341 |  |  |  |  |  |  |  |  | 
Cc1nc(CCNC(=O)c2cccnc2S)sc1C [Z1432661577] | 10 | 100 | 10.2 | 5.7 | 26.8 | 103 | 104.1 | 108.4 | 20.8 | 1.319 |  |  |  |  |  |  |  |  | 
CCN(c1ccc(C(=O)CCl)cc1)S(C)(=O)=O [Z85932823] | 25 | 84 |  |  |  |  |  |  |  |  | 25.1 | 25.8 | 34.6 | 58.2 | 84.1 | 87.1 | 39.7 | 1.598 | 
Cc1ccc(CNC(=O)n2ccnc2)cc1 [Z295462498] | 21 | 100 |  |  |  |  |  |  |  |  | 21 | 37.9 | 33.6 | 84.1 | 101.3 | 104 | 26.7 | 1.426 | 
O=C(CCl)N1CCN(Cc2ccsc2)CC1 [Z2650385668] | 15 | 86 |  |  |  |  |  |  |  |  | 14.7 | 16.7 | 31.9 | 63.6 | 86.4 | 96.9 | 35.7 | 1.553 | 
Cc1ccccc1CN1CCCN(C(=O)CCl)CC1 [Z2651952322] | 18 | 91 |  |  |  |  |  |  |  |  | 17.5 | 31.4 | 33.6 | 62.8 | 90.5 | 99.5 | 33.1 | 1.52 | 

Reference: paper PMC8989888, “Development of optimized drug-like small molecule inhibitors of the SARS-CoV-2 3CL protease for treatment of COVID-19” (Nature Communications, 2022)
